Experimental data published in US20160194299A1 (priority 2013, published 2016).

Legend:
Mtb [1] = test: microbe, parasite or virus in culture; type: cell-based, Mycobacterium tuberculosis
Mtb [2] = test: microbe, parasite or virus in culture; type: cell-based, Mycobacterium tuberculosis; remark: listed apart in the source
Mtb [3] = test: microbe, parasite or virus in culture; type: cell-based, Mycobacterium tuberculosis; settings: for MIC: Mycobacterium tuberculosis, read-out: MIC (II)

Structure (SMILES) | MIC (Mtb [3]) [µg/mL] | other results
O=C(NC(=O)c1ccsc1NC(=O)c1nc2ccccc2s1)OCCF [Compound 20] |  | LC50 (IV) (Vero cells): C (key: A: >50 μg/mL; B: 50-25 μg/mL; C: <25 μg/mL); MIC (I) (Mtb [1]): A (key: A: <1 μg/mL; B: 1-3 μg/mL; C: >3 μg/mL)
CCOC(=O)NC(=O)c1ccsc1NC(=O)c1n[nH]c2cc(C)ccc12 [Compound 120] |  | LC50 (IV) (Vero cells): A (key: A: >50 μg/mL; B: 50-25 μg/mL; C: <25 μg/mL); MIC (III) (Mtb [2]): C (key: A: <5 μg/mL; B: 5-25 μg/mL; C: >25 μg/mL); MIC (I) (Mtb [1]): C (key: A: <1 μg/mL; B: 1-3 μg/mL; C: >3 μg/mL)
CCOC(=O)NC(=O)c1ccsc1NC(=O)c1n[nH]c2cc(C#N)ccc12 [Compound 128] |  | LC50 (IV) (Vero cells): A (key: A: >50 μg/mL; B: 50-25 μg/mL; C: <25 μg/mL); MIC (III) (Mtb [2]): C (key: A: <5 μg/mL; B: 5-25 μg/mL; C: >25 μg/mL); MIC (I) (Mtb [1]): C (key: A: <1 μg/mL; B: 1-3 μg/mL; C: >3 μg/mL)
CCOC(=O)NC(=O)c1ccsc1NC(=O)c1n[nH]c2cc(Cl)ccc12 [Compound 134] |  | LC50 (IV) (Vero cells): A (key: A: >50 μg/mL; B: 50-25 μg/mL; C: <25 μg/mL); MIC (III) (Mtb [2]): C (key: A: <5 μg/mL; B: 5-25 μg/mL; C: >25 μg/mL); MIC (I) (Mtb [1]): C (key: A: <1 μg/mL; B: 1-3 μg/mL; C: >3 μg/mL)
CCOC(=O)NC(=O)c1ccsc1NC(=O)c1nc(=O)[nH]c2ccccc12 [Compound 141] |  | LC50 (IV) (Vero cells): A (key: A: >50 μg/mL; B: 50-25 μg/mL; C: <25 μg/mL); MIC (III) (Mtb [2]): C (key: A: <5 μg/mL; B: 5-25 μg/mL; C: >25 μg/mL); MIC (I) (Mtb [1]): C (key: A: <1 μg/mL; B: 1-3 μg/mL; C: >3 μg/mL)
CCOC(=O)NC(=O)c1ccsc1NC(=O)c1ccc(S(C)(=O)=O)c([N+](=O)[O-])c1 [Compound 148] | > 3 | 
CCOC(=O)NC(=O)c1ccsc1NC(=O)c1ccnc(OCC)c1 [Compound 149] | > 3 | 
CCOC(=O)NC(=O)c1ccsc1NC(=O)c1ccc(S(C)(=O)=O)c(N)c1 [Compound 150] | > 3 | 
CCOC(=O)NC(=O)c1ccsc1NC(=O)c1sc2ncnc(O)c2c1C [Compound 151] | > 3 | 
CCOC(=O)NC(=O)c1ccsc1NC(=O)c1cnc(N2CCOCC2)nc1 [Compound 152] | > 3 | 
CCOC(=O)NC(=O)c1ccsc1NC(=O)c1ccnc(NS(=O)(=O)c2ccc(C)cc2)c1 [Compound 153] | > 3 | 
CCOC(=O)NC(=O)c1ccsc1NC(=O)c1ccnc(NC(=O)OCc2ccccc2)c1 [Compound 154] | > 3 | 
CCOC(=O)NC(=O)c1ccsc1NC(=O)C1CCN(c2ccccn2)CC1 [Compound 155] | > 3 | 
CC(=O)Nc1cc(C(=O)Nc2sccc2S(=O)(=O)c2ccccc2)ccn1 [Compound 156] | > 3 | 
CCOC(=O)NC(=O)c1ccsc1NC(=O)c1ccc(C(C)(F)F)nc1 [Compound 157] | > 3 | 
CCOC(=O)NC(=O)c1ccsc1NC(=O)c1cncs1 [Compound 158] | > 3 | 
CCOC(=O)NC(=O)c1ccsc1NC(=O)c1cnc2[nH]ccc2c1 [Compound 159] |  | MIC (II) (Mtb [3]): C (key: A: <1 μg/mL; B: 1-3 μg/mL; C: >3 μg/mL)
CC(C)c1nnc(NC(=O)c2ccsc2NC(=O)c2nc3ccccc3s2)o1 [Compound 160] | > 3 | 
CCOC(=O)NC(=O)c1ccsc1NC(=O)c1nc(C)cs1 [Compound 161] | > 3 | 
CCOC(=O)NC(=O)c1ccsc1NC(=O)c1ccc2[nH]c(S)nc2c1 [Compound 162] |  | MIC (II) (Mtb [3]): C (key: A: <1 μg/mL; B: 1-3 μg/mL; C: >3 μg/mL)
CCOC(=O)NC(=O)c1ccsc1NC(=O)c1ccnc(N)c1 [Compound 163] | > 3 | 
CCOC(=O)NC(=O)c1ccsc1NC(=O)c1cncnc1 [Compound 164] | > 3 | 
CCOC(=O)NC(=O)c1ccsc1NC(=O)c1ccncn1 [Compound 165] | > 3 | 

Structure (SMILES) | MIC (Mtb [3]) [µg/mL] | other results
CCOC(=O)NC(=O)c1ccsc1NC(=O)c1cnccn1 [Compound 166] | > 3 | 
CCOC(=O)NC(=O)c1ccsc1NC(=O)c1ccccn1 [Compound 167] | > 3 | 
CCOC(=O)NC(=O)c1ccsc1NC(=O)c1ccnc(N(C)C)c1 [Compound 168] | > 3 | 
Cc1c(-c2ccccc2)sc(NC(=O)c2nc3ccccc3s2)c1C(=O)N1CCOCC1 [Compound 169] | > 3 | 
CCOC(=O)NC(=O)c1ccsc1NC(=O)c1ccncc1 [Compound 170] | > 3 | 
CCOC(=O)NC(=O)c1ccsc1NC(=O)Cc1ccccc1 [Compound 171] | > 3 | 
CCOC(=O)NC(=O)c1ccsc1NC(=O)c1cccc(F)c1 [Compound 172] | > 3 | 
CCOC(=O)NC(=O)c1ccsc1NC(=O)c1c(F)ccc(OC)c1F [Compound 173] | > 3 | 
CCOC(=O)NC(=O)c1ccsc1NC(=O)c1ccc(OC)cc1 [Compound 174] | > 3 | 
CCOC(=O)NC(=O)c1ccsc1NC(=O)c1c(F)ccc(C)c1F [Compound 175] | > 3 | 
CCOC(=O)NC(=O)c1ccsc1NC(=O)c1c(F)cc(F)cc1F [Compound 176] | > 3 | 
CCOC(=O)NC(=O)c1ccsc1NC(=O)C1CCCCC1 [Compound 177] | > 3 | 
CCOC(=O)NC(=O)c1ccsc1NC(=O)c1ccnc(C(F)(F)F)c1 [Compound 178] | > 3 | 
NC(=O)c1cnn(-c2ccccc2)c1NC(=O)c1nc2ccccc2s1 [Compound 179] | > 3 | 
CC(=O)Nc1cc(C(=O)Nc2sccc2C(=O)N2CCCCC2)ccn1 [Compound 180] | > 3 | 
CC(=O)Nc1cc(C(=O)Nc2sccc2C(=O)N2CCOCC2)ccn1 [Compound 181] | > 3 | 
CC(=O)Nc1cc(C(=O)Nc2sccc2C(=O)Nc2ccc(Cl)cc2)ccn1 [Compound 182] | > 3 | 
CNC(=O)c1ccsc1NC(=O)c1ccnc(NC(C)=O)c1 [Compound 183] | > 3 | 
CC(=O)Nc1cc(C(=O)Nc2sccc2S(C)(=O)=O)ccn1 [Compound 184] | > 3 | 
CCOC(=O)NC(=O)c1c(NC(=O)c2ccnc(NC(C)=O)c2)sc2c1CCCC2 [Compound 185] | > 3 | 
CCOC(=O)c1c(NC(=O)c2ccnc(NC(C)=O)c2)sc2c1CCCC2 [Compound 186] | > 3 | 
CCOC(=O)NC(=O)c1ccccc1NC(=O)c1ccnc(NC(C)=O)c1 [Compound 187] | > 3 | 
CCOC(=O)NC(=O)c1c(NC(=O)c2ccnc(NC(C)=O)c2)sc2c1CCN(CC)C2 [Compound 188] | > 3 | 

Structure (SMILES) | MIC (Mtb [3]) [µg/mL] | other results
CCOC(=O)N(C)C(=O)c1ccsc1NC(=O)c1ccnc(NC(C)=O)c1 [Compound 189] | > 3 | 
CC(=O)Nc1cc(C(=O)Nc2nnc(C(F)(F)F)s2)ccn1 [Compound 190] | > 3 | 
O=C(Nc1sccc1C(=O)NCc1ccccc1)c1nc2ccccc2s1 [Compound 191] | > 3 | 
CCOC(=O)NC(=O)c1ccsc1NC(=O)c1ccnc(NC(=O)C(F)(F)F)c1 [Compound 193] | > 3 | 
CC(=O)Nc1cc(C(=O)Nc2sccc2S(=O)(=O)c2ccccn2)ccn1 [Compound 194] | > 3 | 
CCOC(=O)NC(=O)c1ccsc1NC(=O)c1cc2ccccc2n1C [Compound 195] | > 3 | 
CCOC(=O)NC(=O)c1ccsc1NC(=O)c1cc2cc(Cl)ccc2[nH]1 [Compound 196] | > 3 | 
CCOC(=O)NC(=O)c1ccsc1NC(=O)c1ncccn1 [Compound 197] | > 3 | 
COC(=O)Nc1cc(C(=O)Nc2sccc2C(=O)Nc2ccccn2)ccn1 [Compound 198] | > 3 | 
CCOC(=O)NC(=O)c1ccsc1NC(=O)c1ccc2[nH]c(C)nc2c1 [Compound 199] |  | MIC (II) (Mtb [3]): C (key: A: <1 μg/mL; B: 1-3 μg/mL; C: >3 μg/mL)
COC(=O)NC(=O)c1ccsc1NC(=O)c1ccc(Oc2ccccc2)cc1 [Compound 200] | > 3 | 
CCOC(=O)NC(=O)c1ccsc1NC(=O)c1nn(C)c2ccccc12 [Compound 201] | > 3 | 
CCOC(=O)NC(=O)c1ccsc1NC(=O)c1cn2c(-c3ccc(C(F)(F)F)cc3)cnc2cn1 [Compound 202] | > 3 | 
CCOC(=O)NC(=O)c1ccsc1NC(=O)c1ccc(Oc2ccc(F)cc2)cc1 [Compound 203] | > 3 | 
CCOC(=O)NC(=O)c1ccsc1NC(=O)c1ccc2c(c1)nc(C(F)(F)F)n2C(C)C [Compound 204] | > 3 | 
CC(=O)Nc1cc(C(=O)Nc2sccc2C(=O)N(C)C)ccn1 [Compound 205] | > 3 | 
CCOCCOCCOC(=O)NC(=O)c1ccsc1NC(=O)c1nc2ccccc2s1 [Compound 206] | > 3 | 
CCOC(=O)NC(=O)c1ccsc1NC(=O)c1ccc(C#N)cc1 [Compound 207] | > 3 | 
CCOc1n[nH]c(-c2ccsc2NC(=O)c2nc3ccccc3s2)n1 [Compound 211] |  | LC50 (IV) (Vero cells): A (key: A: >50 μg/mL; B: 50-25 μg/mL; C: <25 μg/mL)
N#Cc1ccccc1NC(=O)c1nc2ccccc2s1 [Compound 215] |  | LC50 (IV) (Vero cells): A (key: A: >50 μg/mL; B: 50-25 μg/mL; C: <25 μg/mL)
CS(=O)(=O)N1CCN(C(=O)c2ccsc2NC(=O)c2nc3ccccc3s2)CC1 [Compound 229] |  | LC50 (IV) (Vero cells): A (key: A: >50 μg/mL; B: 50-25 μg/mL; C: <25 μg/mL)
COC(=O)CCCNC(=O)c1ccsc1NC(=O)c1nc2ccccc2s1 [Compound 237] |  | LC50 (IV) (Vero cells): B (key: A: >50 μg/mL; B: 50-25 μg/mL; C: <25 μg/mL)
